The values that follow come from patent publication US20260055051A1, “Compound with anti-tumor activity, preparation method therefor, and use thereof” (Ocean University of China, priority 2022, published 2026).

Common to all, as to assay type: cell-based
Assay [1] relates to human colon cancer cell line HCT116. The experiment in a line: In vitro tumor cell proliferation inhibition assay (SRB method), HCT116. The settings on record: for inhibition at 10 µM: HCT-116, test compounds 10 μM; for inhibition at 10 µM / IC50: SRB; for IC50: HCT-116, 72 hours, mean of triplicate experiments, read-out: IC50 against HCT116. Here is the method: (§1) Sulforhodamine B Colorimetric Method (SRB Method) and MTT Colorimetric Method (MTT Method)
(§2) Human lung cancer cell line A549, human liver cancer cell line HepG2, human colon cancer cell line HCT116, human colon cancer cell line HT-29, human leukemia cell line K562, human cervical cancer cell line hela, and human breast cancer cell line MCF-7, all provided by the Shanghai Cell Bank, Chinese Academy of Sciences.
(§3) A549, HepG2, HCT116, HT-29, K562, hela, and MCF-7 cells were cultured respectively in 1640, DMEM, 5A, 5A, 1640, DMEM, and 1640 culture media containing 10 wt % heat-inactivated FBS (fetal bovine serum), 2 mM L-glutamine, 100 U/mL penicillin and […] streptomycin, in a cell incubator at 37° C. and 5 vol % CO2. The medium was replaced every two days. After the A549, HepG2, HCT116, HT-29, hela, and MCF-7 cells were confluent, they were digested with 0.05% (w/v) trypsin-EDTA at 37° C., passaged, and maintained in the logarithmic growth phase suitable for testing. The K562 suspension cells were passaged without digestion, and maintained in the logarithmic growth phase suitable for testing. The A549, HepG2, HCT116, HT-29, K562, hela, and MCF-7 cells in the logarithmic growth phase were inoculated to 96-well plates at 5000, 5000, 5000, 5000, 6000, 5000, 5000 per well, respectively, and cultured at 37° C. for 24 h.
(§4) Then various concentrations of test samples were added. The positive control group was doxorubicin hydrochloride (final concentration was 1 μM), the solvent control group was an equal volume of DMSO, and the blank control group was an equal volume of a culture medium, with 4 replicate wells for each concentration. After the A549, HepG2, HCT116, HT-29, hela, and MCF-7 cells were treated with the test drugs for 72 hours, the cells in each well were fixed with 50% (m/v) cold trichloroacetic acid (TCA) and stained with SRB. Then […] of Tris solution was added, and the OD value at the wavelength of 540 nm was measured using a microplate reader. For K562 cells, after 72 hours of treatment with the test drugs, […] of 5 mg/mL MTT was added, and the cells were incubated at 37° C. for 4 hours. Next, […] of a triplet solution (10% SDS, 5% isobutanol, 12 mM HCl) was added, followed by further incubation for 12 to 20 hours. The OD value at the wavelength of 570 nm was measured using a microplate reader.
(§5) The tumor cell growth inhibition rate was calculated according to the following equation: […]
(§6) in the equation, • OD540 control well is the absorbance of the control group; • OD540 dosing well is the absorbance of the test group.
(§7) IC50 values of the test drugs (calculated by GraphPad Prism 5 software) were the means of the results of triplicate experiments.
In general terms: Sulforhodamine B stains cellular protein and so reports cell mass.

Assay [2] relates to human lung cancer cell line A549. The experiment in a line: In vitro tumor cell proliferation inhibition assay (SRB method), A549. The settings on record: 72 hours; for inhibition at 10 µM: test compounds 10 μM; for inhibition at 10 µM / IC50: SRB; for IC50: mean of triplicate experiments, read-out: IC50 against A549. Here is the method: as §1, §2, §3, §4, §5, §6, §7
Assay [3] relates to human liver cancer cell line HepG2. Kind of assay: In vitro tumor cell proliferation inhibition assay (SRB method), HepG2. The settings on record: 72 hours; for inhibition at 10 µM: test compounds 10 μM; for inhibition at 10 µM / IC50: SRB; for IC50: mean of triplicate experiments, read-out: IC50 against HepG2. On the procedure: as §1, §2, §3, §4, §5, §6, §7
Assay [4] relates to human colon cancer cell line HT-29. The experiment in a line: In vitro tumor cell proliferation inhibition assay (SRB method), HT-29. Particulars: 72 hours; for IC50: SRB, mean of triplicate experiments, read-out: IC50 against HT-29. On the procedure: as §1, §2, §3, §4, §5, §6, §7
Assay [5] has as its system human leukemia cell line K562. The experiment in a line: In vitro tumor cell proliferation inhibition assay (MTT method), K562. The settings on record: 72 hours; for IC50: mean of triplicate experiments, read-out: IC50 against K562. Here is the method:
as §1, §2, §3, §4, §5, §6, §7
A general note: Tetrazolium dyes change colour on reduction, which living cells bring about.

The subject of assay [6] is human cervical cancer cell line hela. Kind of assay: In vitro tumor cell proliferation inhibition assay (SRB method), hela. Particulars: 72 hours; for IC50: SRB, mean of triplicate experiments, read-out: IC50 against hela. Here is the method: as §1, §2, §3, §4, §5, §6, §7
The test system of assay [7] is human breast cancer cell line MCF-7. Kind of assay: In vitro tumor cell proliferation inhibition assay (SRB method), MCF-7. Particulars: for IC50: MCF7, 72 hours, SRB, mean of triplicate experiments, read-out: IC50 against MCF-7. On the procedure:
as §1, §2, §3, §4, §5, §6, §7

Assay [8] concerns A549, HepG2, HCT116, HT-29, K562, hela, and MCF-7 cell lines. The experiment in a line: In vitro tumor cell proliferation inhibition assay, summary over all 7 types of cells. Particulars: Homo sapiens. Here is the method:
as §1, §2, §3, §4, §5, §6, §7

Setting [9] is: 72 hours, read-out: Inhibition rate on HCT116.
[10] abbreviates: read-out: Inhibition rate on A549.
The mark [11] stands for this setting: read-out: Inhibition rate on HepG2.
[12] abbreviates: upper bound over A549, HepG2, HCT116, HT-29, K562, hela, MCF-7.

The inhibition is how much of the control response was suppressed. For the compound `C=CC(=O)NCc1c(C(=O)OC)cc(O)c(O)c1O` [Compound I-8, N-(2,3,4-trihydroxy-6-carbomethoxy-benzyl) acrylamide], the inhibition at 10 µM was found to be 30.4% in assay [1] (setting [9]), 28.5% in assay [2] (setting [10]) and 54.8% in assay [3] (setting [11]).

Take `COc1cccc2c1C(=O)c1c(O)c3c(c(O)c1C2=O)C[C@@](O)(C(=O)CO)C[C@@H]3O[C@H]1C[C@H](N)[C@H](O)[C@H](C)O1` [doxorubicin, reference compound]: the inhibition at 1 µM in assay [4] (doxorubicin 1 μM, read-out: Inhibition rate on HT-29) came out at 95.3%; in assay [1] (HCT-116, doxorubicin 1 μM, 72 hours, read-out: Inhibition rate on HCT116), 60.9%; in assay [5] (doxorubicin 1 μM, read-out: Inhibition rate on K562), 40.8%; in assay [2] (doxorubicin 1 μM, read-out: Inhibition rate on A549), 88.8%; in assay [3] (doxorubicin 1 μM, read-out: Inhibition rate on HepG2), 78.1%; in assay [6] (doxorubicin 1 μM, read-out: Inhibition rate on hela) it was 44.3%. In addition, the inhibition at 1 µM in assay [7] (MCF7, doxorubicin 1 μM, 72 hours, read-out: Inhibition rate on MCF-7) was found to be 69.1%.

On to `COC(=O)c1cc(O)c(O)c(O)c1CNC(=O)c1ccccc1` [Compound I-14, N-(2,3,4-trihydroxy-6-carbomethoxy-benzyl) benzamide], for which the figures for the inhibition at 10 µM in assay [1] (setting [9]), in assay [2] (setting [10]) and in assay [3] (setting [11]) were 34.1%, 37.7% and 1.56%, respectively.

`COC(=O)c1cc(O)c(O)c(O)c1CNC(=O)CCl` [Compound I-12, N-(2,3,4-trihydroxy-6-carbomethoxy-benzyl) chloroacetamide]: the values for the inhibition at 10 µM in assay [1] (setting [9]), in assay [2] (setting [10]) and in assay [3] (setting [11]) were 47.6%, 40.9% and 55.9%, respectively.

`CCCOC(=O)c1cc(O)c(O)c(O)c1CNC(C)=O` [Compound I-11, N-(2,3,4-trihydroxy-6-propoxycarbonyl-benzyl) acetamide]: the inhibition at 10 µM is 38.2% in assay [1] (setting [9]), 32.5% in assay [2] (setting [10]) and 55.5% in assay [3] (setting [11]).

For orientation: IC50 means the point on the concentration scale where inhibition reaches its midpoint. In the case of `C=CC(=O)NCc1c(O)c(Br)c(O)c(CNC(=O)C=C)c1C(=O)O` [Compound I-17], the IC50 was 8.6 µM in assay [4]; 2.74 µM in assay [1]; under 35.5 µM in assay [8] (setting [12]); 18 µM in assay [5]; 7.77 µM in assay [2]; 3.05 µM in assay [3]. For the same compound, the IC50 in assay [6] stood at 3.01 µM; in assay [7], 2.93 µM. Moreover, the inhibition at 10 µM in assay [1] (setting [9]) turned out to be 91.5%; in assay [2] (setting [10]), 95.8%; in assay [3] (setting [11]), 90.3%.

For `C=CC(=O)NCc1c(C(=O)OCCC)cc(O)c(O)c1O` [Compound I-9, N-(2,3,4-trihydroxy-6-propoxycarbonyl-benzyl) acrylamide], the results for the inhibition at 10 µM in assay [1] (setting [9]), in assay [2] (setting [10]) and in assay [3] (setting [11]) were 29.1%, 27.5% and 51.1%, respectively.

For `C=CC(=O)NCc1cc(C(C)=O)c(O)c(CNC(=O)C=C)c1O` [Compound I-16], the inhibition at 10 µM in assay [1] (setting [9]) worked out at 33.9%; in assay [2] (setting [10]) it was 4.84%; in assay [3] (setting [11]), 13%.

For the compound `CCCOC(=O)c1cc(O)c(O)c(O)c1CNC(=O)CCl` [Compound I-13, N-(2,3,4-trihydroxy-6-propoxycarbonyl-benzyl) chloroacetamide], the inhibition at 10 µM in assay [1] (setting [9]) amounted to 37.8%; in assay [2] (setting [10]) it was 29.6%; in assay [3] (setting [11]), 55%.

For the compound `CC(=O)NCc1c(O)c(O)c(O)c(CNC(C)=O)c1C(=O)O` [Compound I-2, N-(2,3,4-trihydroxy-5-acetamidomethyl-6-carboxybenzyl) acetamide], the IC50 in assay [4] is over 50 µM; in assay [1], over 50 µM; in assay [5], over 50 µM; in assay [2], 4.84 µM; in assay [3], over 50 µM; in assay [6], over 50 µM. For the same compound, in assay [7], the IC50 was over 50 µM. Further, the inhibition at 10 µM in assay [1] (setting [9]) amounted to 82%; in assay [2] (setting [10]) it was 69.9%; in assay [3] (setting [11]), 18.4%.

`C=CC(=O)NCc1cc(C(=O)OC)cc(O)c1O` [Compound I-18]: the inhibition at 10 µM in assay [1] (setting [9]) amounted to 22.5%; in assay [2] (setting [10]) it was 10.5%; in assay [3] (setting [11]) it was 73%.

As to `C=CC(=O)NCc1cc(CNC(=O)C=C)c(O)c(C(C)=O)c1O` [Compound I-15], the inhibition at 10 µM in assay [1] (setting [9]) worked out at 27.7%; in assay [2] (setting [10]), 7.05%; in assay [3] (setting [11]), 33.5%.

Consider `Cc1c(O)c(CNC(=O)CCl)cc(CNC(=O)CCl)c1O` [Compound I-3, N-(2,4-dihydroxy-3-methyl-5-chloroacetamidomethylbenzyl) chloroacetamide], for which the IC50 in assay [4] is 10.7 µM; in assay [1], 5.12 µM; in assay [8] (setting [12]), under 35.5 µM; in assay [5], 14.5 µM; in assay [2] it was 7.4 µM; in assay [3], 6.04 µM. Besides, the IC50 in assay [6] is 9.3 µM; in assay [7] it was 9.73 µM. In addition, the inhibition at 10 µM in assay [1] (setting [9]) came to 76.5%; in assay [2] (setting [10]) it was 95.9%; in assay [3] (setting [11]), 92.3%.

Take `Cc1c(C)c(CNC(=O)CCl)c(C)c(CNC(=O)CCl)c1O` [Compound I-5, N-(2,3,6-trimethyl-4-hydroxy-5-chloroacetamidomethylbenzyl) chloroacetamide]: the IC50 in assay [4] was 9.39 µM; in assay [1], 5.32 µM; in assay [8] (setting [12]), under 35.5 µM; in assay [8] (upper bound over all 7 types of cells, compound I-5) it was under 9.4 µM; in assay [5] it was 6.93 µM; in assay [2], 6.32 µM. Besides, the IC50 in assay [3] amounted to 4.06 µM; in assay [6], 5.64 µM; in assay [7] it was 3.74 µM. The inhibition at 10 µM in assay [1] (setting [9]) came to 97.3%; in assay [2] (setting [10]), 89.5%; in assay [3] (setting [11]) it was 95.3%.

On to `COC(=O)c1cc(O)c(O)c(O)c1CNC(C)=O` [Compound I-10, N-(2,3,4-trihydroxy-6-carbomethoxy-benzyl) acetamide], for which the figures for the inhibition at 10 µM in assay [1] (setting [9]), in assay [2] (setting [10]) and in assay [3] (setting [11]) were 34.8%, 38.2% and 55.8%, respectively.
